Measurements: publication PMC7078479, “Sulfamoyl Heteroarylcarboxylic Acids as Promising Metallo-β-Lactamase Inhibitors for Controlling Bacterial Carbapenem Resistance” (mBio, 2020)

Molecular target: T1, IMP-1 (Serratia marcescens, UniProt P52699)
T1 construct: made in house
Test: Library screening, nitrocefin hydrolysis by IMP-1
Format: biochemical
Conditions: 100 μM compound, 10 nM IMP-1, 100 μM nitrocefin, 1 h
Text: Screening compounds were provided from the curated collection of an in-house small-molecule chemical library (the chemical library of the Institute of Transformative Bio-Molecules [ITbM]). The library is composed of structurally diverse molecules, including synthetic molecules with unknown activity, known enzyme inhibitors, approved drugs, and natural products. Some of these molecules are commercially available from several worldwide chemical suppliers, whereas some are structurally novel molecules synthesized in-house by ITbM. All compounds were dissolved in dimethyl sulfoxide (DMSO) at a concentration of 10 mM and stored at −20°C until further use. We screened 22,671 compounds in 96-well flat plates using nitrocefin as a reporter substrate ([37]). Each well included 20 mM HEPES-NaOH buffer (pH 7.5) containing 10 nM IMP-1, 100 μM nitrocefin, and 100 μM concentrations of the tested compounds. The absorbance (Abs) at 482 nm was measured after incubation for 1 h at room temperature. The inhibitory effect of compounds against IMP-1 was evaluated using the following equation: Residual ratio=Abs482 nm compound/Abs482 nm no compound

T1 sequence (P52699 19-246 limits assumed): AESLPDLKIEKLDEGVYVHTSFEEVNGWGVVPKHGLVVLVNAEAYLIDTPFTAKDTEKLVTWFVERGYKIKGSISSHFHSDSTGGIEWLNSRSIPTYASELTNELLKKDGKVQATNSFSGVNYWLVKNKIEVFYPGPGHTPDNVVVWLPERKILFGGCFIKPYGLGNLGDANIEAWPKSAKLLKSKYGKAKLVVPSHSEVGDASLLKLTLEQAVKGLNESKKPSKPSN

O=C([O-])C1=CS[C@@H]2/C(=C\c3cn4c(n3)COCC4)C(=O)N12.[Na+] [BLI-489]
Residual ratio (Abs482 compound/no compound): < 0.6
